Results: patent publication US11840528B2 (Hoffmann-La Roche Inc., priority 2018, dated 2023)

Columns and labels:
[1] = target: T1, h-GABA-A α5β3γ2 (Homo sapiens, UniProt P18507+P31644); assay: [3H]flumazenil competition binding assay, membranes of HEK293 cells expressing GABAA receptors; conditions: displacement of [3H]-Flumazenil 0.5 nM, HEK293 cells expressing human receptors, mean of two determinations; Table 1
Summary of the method: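 Membranes from HEK293 cells transiently expressing human α5β3γ2 GABAA receptors, in Krebs-tris buffer pH 7.5, competed against [3H]flumazenil for 1 hour at 4° C to equilibrium. Bound radioactivity collected on GF/C filters and counted by liquid scintillation; Ki values are means of two determinations.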

[2] = target: T1, h-GABA-A α5β3γ2; assay: Two-electrode voltage clamp electrophysiology in Xenopus laevis oocytes expressing GABAA receptors, modulation of GABA EC20 current; type: cell-based; design: host or cells: Xenopus laevis oocytes micro-injected with RNA transcripts of the subunits; conditions: Table 1; for Efficacy (GABA) %: % modulation of GABA EC20 = 100*(Fold increase-1); for Fold increase h-GABA-A α5β3γ2 oocyte: test compound at approx. 30 fold its Ki, GABA at EC20
Summary of the method: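 Human α5β3γ2 GABAA receptors were expressed in Xenopus oocytes by RNA injection, with γ2 RNA 5–10-fold higher, and recorded 3–5 days later by two-electrode voltage clamp at −80 mV at room temperature. The test compound, at about 30× its Ki, was co-applied during a second GABA EC20 pulse. Efficacy is the extremum of the point-by-point ratio to the first response, expressed as 100*(Fold increase−1).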

Ki [1] [nM]	Efficacy (GABA) % [2] [%]	Fold increase h-GABA-A α5β3γ2 oocyte [2]	SMILES
2.8	77	1.77	Cc1ccc(-c2noc(C)c2Cn2ncc(N3CC4(CCCCO4)C3)cc2=O)nn1 [Example 235, 2-((5-methyl-3-(6-methylpyridazin-3-yl)isoxazol-4-yl)methyl)-5-(5-oxa-2-azaspiro[3.5]nonan-2-yl)pyridazin-3(2H)-one]
8.3	74	1.74	COc1cc(-c2cnn(Cc3c(-c4ccc(Cl)nc4)noc3C)c(=O)c2)ccn1 [Example 214, 2-((3-(6-chloropyridin-3-yl)-5-methylisoxazol-4-yl)methyl)-5-(2-methoxypyridin-4-yl)pyridazin-3(2H)-one]
5.7	94	1.94	Cc1ccc(-c2noc(C)c2Cn2ncc(N3CC4(CC(C)CO4)C3)cc2=O)nn1 (single isomer, unassigned) [Example 240, 2-[[5-methyl-3-(6-methylpyridazin-3-yl)isoxazol-4-yl]methyl]-5-[(7R)-7-methyl-5-oxa-2-azaspiro[3.4]octan-2-yl]pyridazin-3-one or enantiomer]
24.6	107	2.07	Cc1onc(-c2ccc(Cl)nc2)c1Cn1ncc(N2CCC3(CCOCC3)CC2)cc1=O [Example 248, 2-((3-(6-chloropyridin-3-yl)-5-methylisoxazol-4-yl)methyl)-5-(3-oxa-9-azaspiro[5.5]undecan-9-yl)pyridazin-3(2H)-one]
3.4	131	2.31	Cc1onc(-c2ccc(Cl)nc2)c1Cn1ncc(N2CCN(c3cncnc3)CC2)cc1=O [Example 277, 2-((3-(6-chloropyridin-3-yl)-5-methylisoxazol-4-yl)methyl)-5-(4-(pyrimidin-5-yl)piperazin-1-yl)pyridazin-3(2H)-one]

The remaining lines, values behind:

SMILES	Ki [1] [nM]	Efficacy (GABA) % [2] [%]	Fold increase h-GABA-A α5β3γ2 oocyte [2]
Cc1onc(-c2ccc(C(F)(F)F)nc2)c1Cn1ncc(N2CCN(C(=O)C3(C)CC3)CC2)cc1=O [Example 40, 5-[4-(1-methylcyclopropanecarbonyl)piperazin-1-yl]-2-[[5-methyl-3-[6-(trifluoromethyl)-3-pyridyl]isoxazol-4-yl]methyl]pyridazin-3-one]	43.3	250	3.5
Cc1onc(-c2ccc(C(F)(F)F)nc2)c1Cn1ncc(N2C[C@@H](C)O[C@@H](C)C2)cc1=O [Example 39, 5-(cis-2,6-dimethylmorpholin-4-yl)-2-[[5-methyl-3-[6-(trifluoromethyl)-3-pyridyl]isoxazol-4-yl]methyl]pyridazin-3-one]	3.2	198	2.98
Cc1ccc(-c2noc(C)c2Cn2ncc(N3CC4(CN(C)C4)C3)cc2=O)cn1 [Example 82, 5-(6-methyl-2,6-diazaspiro[3.3]heptan-2-yl)-2-[[5-methyl-3-(6-methyl-3-pyridyl)isoxazol-4-yl]methyl]pyridazin-3-one]	32.8	245	3.45
Cc1ccc(-c2noc(C)c2Cn2ncc(N3CCN(C(=O)C4CC4)CC3)cc2=O)cn1 [Example 9, 5-(4-(cyclopropanecarbonyl)piperazin-1-yl)-2-((5-methyl-3-(6-methylpyridin-3-yl)isoxazol-4-yl)methyl)pyridazin-3(2H)-one]	15.9	153	2.53
Cc1ccc(-c2noc(C)c2Cn2ncc(N3CCOCC3)cc2=O)cn1 [Example 22, 2-[[5-methyl-3-(6-methyl-3-pyridyl)isoxazol-4-yl]methyl]-5-morpholino-pyridazin-3-one]	3.2	166	2.66
